{
  "source": "patent US20070280982A1",
  "about": "“Antimicrobial compositions comprising hop acid alkali salts and uses thereof” (priority 2006, published 2007)",
  "key": {"Bacillus subtilis": {"tested_on": "Bacillus subtilis", "details": "cited from earlier work"}, "B. subtilis": {"tested_on": "B. subtilis", "experiment": "Shelf-life extension (bacteriostatic) assay, broth dilution, FIG. 1 and FIG. 3", "type": "cell-based, Bacillus subtilis", "details": "glycine alone versus combined with beta acid sodium salts", "experimental": "Shelf-life extension assays were performed using the broth dilution method. Final inoculum concentration was […]. Microbial growth was assayed with a spectrophotometer by monitoring the absorption at 600 nm after 2 to 3 days. […] After incubation, colonies were counted."}},
  "data": [
    {"smiles": "NCC(=O)O", "note": "[Glycine]", "values": [
      {"measurement": "Known activity against Bacillus subtilis", "setting": "Bacillus subtilis", "result": "relatively weak activity"},
      {"measurement": "Effect on bacterial growth, alone or in combination (FIG. 3)", "setting": "B. subtilis", "result": "almost no effect on bacterial growth"}
    ]}
  ]
}
